Reference: ChEMBL document CHEMBL1201862, “PubChem BioAssay data set” (2004)
“And” between values parts separate entries of the source, which are not always exact repeats. Identical values can stand only once.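 Cultured in 96-well plates, cells were exposed to test compound for 48 hours across five concentrations. GI50: concentration for 50% inhibition of growth.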 The source made the active and inactive calls. No stated cut-off is given here; in the data, active = GI50 up to about 1.1 µM and inactive = higher.

Key:
Assay in all cases: NCI anticancer screen, dose series, 48 h
UACC-62 = system: UACC-62
786-0 = system: 786-0
SNB-19 = system: SNB-19
SF-539 = system: SF-539
TK-10 = system: TK-10
HL-60 = system: HL-60
CCRF-CEM = system: CCRF-CEM
A498 = system: A498
Malme-3M = system: Malme-3M
CAKI-1 = system: CAKI-1
SK-OV-3 = system: SK-OV-3
MCF7 = system: MCF7
M14 = system: M14
IGROV-1 = system: IGROV-1
EKVX = system: EKVX
NCI-H460 = system: NCI-H460
K562 = system: K562
HT-29 = system: HT-29
HOP-62 = system: HOP-62
MDA-N = system: MDA-N

| SMILES | GI50 (UACC-62) | GI50 (786-0) | GI50 (SNB-19) | GI50 (SF-539) | GI50 (TK-10) | GI50 (HL-60) | GI50 (CCRF-CEM) | GI50 (A498) | GI50 (Malme-3M) | GI50 (CAKI-1) | GI50 (SK-OV-3) | GI50 (MCF7) | GI50 (M14) | GI50 (IGROV-1) | GI50 (EKVX) | GI50 (NCI-H460) | GI50 (K562) | GI50 (HT-29) | GI50 (HOP-62) | GI50 (MDA-N) |
| --- | --- | --- | --- | --- | --- | --- | --- | --- | --- | --- | --- | --- | --- | --- | --- | --- | --- | --- | --- | --- |
| CSc1c(C#N)c(O)n(-c2ccc(C)cc2)c(=O)c1C(C)=O | > 100 µM (inactive) | > 100 µM (inactive) | > 100 µM (inactive) | > 100 µM (inactive) | > 100 µM (inactive) | > 100 µM (inactive) | > 100 µM (inactive) | 51.5 µM (inactive) | > 100 µM (inactive) | > 100 µM (inactive) | > 100 µM (inactive) | > 100 µM (inactive) | 94.6 µM (inactive) | > 100 µM (inactive) | > 100 µM (inactive) | > 100 µM (inactive) | > 100 µM (inactive) | > 100 µM (inactive) | – | – |
| COc1ccc(/N=N/C(=N/NC(=O)c2cc(Cl)ccc2C(=O)c2ccccc2)c2ccc(N(CCC#N)CCC#N)cc2C)cc1 | 17.2 µM (inactive) | 18.5 µM (inactive) | 25.9 µM (inactive) | – | 18.2 µM (inactive) | – | 4.54 µM (inactive) | – | 26.2 µM (inactive) | 21.3 µM (inactive) | 24.4 µM (inactive) | 25.4 µM (inactive) | 18.2 µM (inactive) | 6.49 µM (inactive) | 16.1 µM (inactive) | 11.5 µM (inactive) | 12.9 µM (inactive) | 21.5 µM (inactive) | 20.1 µM (inactive) | 21.7 µM (inactive) |
| C=CC(=O)C#CC#CC/C=C\CCCCCCC | > 20.6 µM (inactive) | > 10.1 µM (inactive) | > 15.5 µM (inactive) | > 20.6 µM (inactive) | > 20.6 µM (inactive) | 9.91 µM (inactive) | 4.9 µM (inactive) | > 20.6 µM (inactive) | > 20.6 µM (inactive) | > 20.6 µM (inactive) | > 20.6 µM (inactive) | > 20.6 µM (inactive) | > 14.6 µM (inactive) | > 6.52 µM (inactive) | > 20.6 µM (inactive) | > 20.6 µM (inactive) | 6.82 µM (inactive) | > 20.6 µM (inactive) | > 10.1 µM (inactive) | – |
| CN(Cc1cnc2nc(N)nc(N)c2n1)c1ccc(C(=O)N[C@@H](CCS(=O)(=O)O)C(=O)O)cc1 | 0.248 µM (active) | 0.0583 µM (active) | 0.582 µM (active) | 0.614 µM (active) | – | – | > 100 µM (inactive) | – | – | > 100 µM (inactive) | – | 0.127 µM (active) | 0.111 µM (active) | 0.431 µM (active) | > 73.3 µM (inactive) | 0.169 µM (active) | > 100 µM (inactive) | – | 1.99 µM (inactive) | 0.057 µM (active) |
| CN(C)C(c1ccccc1)C1COC2Cc3ccccc3C1O2 (stereo unspecified) | > 100 µM (inactive) | > 100 µM (inactive) | > 100 µM (inactive) | > 100 µM (inactive) | > 100 µM (inactive) | 65 µM (inactive) and 46.8 µM (inactive) | 79.3 µM (inactive) | > 100 µM (inactive) | > 100 µM (inactive) and 60.7 µM (inactive) | > 100 µM (inactive) | > 100 µM (inactive) | – | > 100 µM (inactive) | > 100 µM (inactive) | > 100 µM (inactive) | > 100 µM (inactive) | 66.2 µM (inactive) and 38.7 µM (inactive) | 47.5 µM (inactive) and 46.6 µM (inactive) | > 100 µM (inactive) | > 100 µM (inactive) |
| Cc1cnc2nc(-c3ccc4ccccc4c3)cc(O)c2c1 | 0.317 µM (active) | 0.61 µM (active) | 0.908 µM (active) | 0.391 µM (active) | 2.4 µM (inactive) | – | 0.323 µM (active) | 0.421 µM (active) | – | – | 0.578 µM (active) | 0.561 µM (active) | 0.547 µM (active) | 0.843 µM (active) | – | – | 0.251 µM (active) | 0.53 µM (active) | 0.851 µM (active) | – |
| O/N=C1/CCCCCC1NO (stereo unspecified) | > 100 µM (inactive) | > 100 µM (inactive) | > 100 µM (inactive) | > 100 µM (inactive) | > 100 µM (inactive) | – | – | – | > 100 µM (inactive) | > 100 µM (inactive) | > 100 µM (inactive) | > 100 µM (inactive) | > 100 µM (inactive) | > 100 µM (inactive) | > 100 µM (inactive) | > 100 µM (inactive) | – | > 100 µM (inactive) | > 100 µM (inactive) | > 100 µM (inactive) |
| CC1OC(OCC2OC(Oc3c(-c4ccc(O)cc4)oc4cc(O)cc(O)c4c3=O)C(OC3OCC(O)(CO)C3O)C(O)C2O)C(O)C(O)C1O (stereo unspecified) | > 100 µM (inactive) | 90.8 µM (inactive) | > 100 µM (inactive) | > 100 µM (inactive) | > 100 µM (inactive) | 21.2 µM (inactive) | 25.7 µM (inactive) | > 100 µM (inactive) | > 100 µM (inactive) | > 100 µM (inactive) | > 100 µM (inactive) | – | > 100 µM (inactive) | > 100 µM (inactive) | > 100 µM (inactive) | 66.4 µM (inactive) | 29.4 µM (inactive) | > 100 µM (inactive) | > 100 µM (inactive) | – |
| C[n+]1c(-c2ccc(/C=N/Nc3ccnc(N/N=C/c4ccc(-c5cn6ccccc6[n+]5C)cc4)n3)cc2)cn2ccccc21 | – | 47.2 µM (inactive) | 42.8 µM (inactive) | 20 µM (inactive) | 41.8 µM (inactive) | 24.5 µM (inactive) | – | – | – | – | > 100 µM (inactive) | – | 31.2 µM (inactive) | 39.3 µM (inactive) | > 100 µM (inactive) | 31.3 µM (inactive) | – | 24.7 µM (inactive) | 43.2 µM (inactive) | 28.9 µM (inactive) |
| CCOC(=O)C(NC(=O)NCc1ccc(F)cc1)C(F)(F)F (stereo unspecified) | – | > 100 µM (inactive) | > 100 µM (inactive) | > 100 µM (inactive) | > 100 µM (inactive) | > 100 µM (inactive) | > 100 µM (inactive) | > 100 µM (inactive) | – | – | > 100 µM (inactive) | – | > 100 µM (inactive) | > 100 µM (inactive) | > 100 µM (inactive) | – | > 100 µM (inactive) | > 100 µM (inactive) | – | > 100 µM (inactive) |
| CN(C)CC1CCCC1=O (stereo unspecified) | 4.37 µM (inactive) | 7.53 µM (inactive) | 31 µM (inactive) | 7.89 µM (inactive) | 2.96 µM (inactive) | 0.084 µM (active) | 0.138 µM (active) | 10.5 µM (inactive) | 1.02 µM (active) | 0.139 µM (active) | 15.3 µM (inactive) | 0.408 µM (active) | 1.16 µM (inactive) | 7.57 µM (inactive) | 1.71 µM (inactive) | 10.5 µM (inactive) | 0.0632 µM (active) | 0.682 µM (active) | 17.9 µM (inactive) | – |
| CC12CCC(C(Nc3cc(C(F)(F)F)cc(C(F)(F)F)c3)C1=O)C2(C)C (stereo unspecified) | > 100 µM (inactive) | > 100 µM (inactive) | > 100 µM (inactive) | > 100 µM (inactive) | > 100 µM (inactive) | – | – | > 100 µM (inactive) | > 100 µM (inactive) | > 100 µM (inactive) | > 100 µM (inactive) | > 100 µM (inactive) | > 100 µM (inactive) | > 100 µM (inactive) | > 100 µM (inactive) | > 100 µM (inactive) | > 100 µM (inactive) | > 100 µM (inactive) | > 100 µM (inactive) | – |
| O=S(=O)([N-]c1nc2ccccc2nc1-[n+]1ccccc1)c1ccccc1 | 93.1 µM (inactive) | > 100 µM (inactive) | > 100 µM (inactive) | > 100 µM (inactive) | 71.4 µM (inactive) | 22.1 µM (inactive) | 10.8 µM (inactive) | – | > 100 µM (inactive) | > 100 µM (inactive) | > 100 µM (inactive) | > 100 µM (inactive) | > 100 µM (inactive) | > 100 µM (inactive) | > 100 µM (inactive) | > 100 µM (inactive) | 29.9 µM (inactive) | > 100 µM (inactive) | 46.1 µM (inactive) | – |
| COC(=O)C(CC(=O)Nc1ccc(Cl)c(Cl)c1)C(=O)C(=O)NC1C2CC3CC(C2)CC1C3 (stereo unspecified) | 92.7 µM (inactive) | > 100 µM (inactive) | > 100 µM (inactive) | > 100 µM (inactive) | > 100 µM (inactive) | > 100 µM (inactive) | > 100 µM (inactive) | > 100 µM (inactive) | > 100 µM (inactive) | > 100 µM (inactive) | > 100 µM (inactive) | – | > 100 µM (inactive) | > 100 µM (inactive) | 54.6 µM (inactive) | > 100 µM (inactive) | > 100 µM (inactive) | > 100 µM (inactive) | > 100 µM (inactive) | – |
| Cc1c(/C=N/N=C/c2[nH]c(C(=O)OC(C)(C)C)c(C)c2C)[nH]c(C(=O)OC(C)(C)C)c1C | > 100 µM (inactive) | 50.8 µM (inactive) | > 100 µM (inactive) | > 100 µM (inactive) | > 100 µM (inactive) | 43.3 µM (inactive) | 70.1 µM (inactive) | > 100 µM (inactive) | > 100 µM (inactive) | > 100 µM (inactive) | > 100 µM (inactive) | – | > 100 µM (inactive) | > 100 µM (inactive) | > 100 µM (inactive) | 81.5 µM (inactive) | 59.4 µM (inactive) | > 100 µM (inactive) | > 100 µM (inactive) | – |
| C/C=C/C1=C(Cl)C(=O)[C@@H](Cl)[C@@]1(O)C(=O)OC [(+)-CRYPTOSPORIPSIN] | 1.65 µM (inactive) | 4.94 µM (inactive) | 3.8 µM (inactive) | 2.19 µM (inactive) | 3.13 µM (inactive) | 1.7 µM (inactive) | 0.912 µM (active) | 5.77 µM (inactive) | 2 µM (inactive) | 2.39 µM (inactive) | 15.1 µM (inactive) | 1.48 µM (inactive) | 3.13 µM (inactive) | 5.38 µM (inactive) | 3.65 µM (inactive) | 5.09 µM (inactive) | 0.869 µM (active) | 3.46 µM (inactive) | 1.52 µM (inactive) | – |
